Measurements from patent publication US7348349B2, “Oxazole derivatives” (Hoffmann-La Roche Inc., priority 2002, dated 2008).
Where two headings read alike, the source gives them in different places.

Legend:
mouse PPARγ [1] = target: T1, mouse PPARγ (Mus musculus, UniProt P37238); assay: Luciferase transcriptional reporter gene assay, pFA-PPARγ-LBD in BHK21 cells; type: cell-based; parameters: PPARγ (aa 174 to 476) and PPARα (aa 167 to 469); expressed in transfected cells; host or cells: BHK21 (ATCC CCL10)
T1 sequence (P37238 204-505): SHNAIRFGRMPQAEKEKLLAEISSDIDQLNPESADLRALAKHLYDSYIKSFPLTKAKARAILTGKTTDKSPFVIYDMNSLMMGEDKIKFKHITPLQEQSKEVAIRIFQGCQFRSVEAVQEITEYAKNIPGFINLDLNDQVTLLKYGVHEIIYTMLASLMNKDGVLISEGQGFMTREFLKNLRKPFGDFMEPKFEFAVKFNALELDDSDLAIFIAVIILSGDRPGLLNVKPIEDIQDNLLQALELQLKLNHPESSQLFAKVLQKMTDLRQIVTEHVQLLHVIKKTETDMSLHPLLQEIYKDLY
Procedure: (§1) Full-length cDNA clones for human PPARα and mouse PPARγ were obtained by RT-PCR from human adipose and mouse liver cRNA, respectively, cloned into plasmid vectors and verified by DNA sequencing. […] To accomplish this, the portions of the cloned sequences encoding the LBDs were amplified from the full-length clones by PCR and then subcloned into the plasmid vectors. Final clones were verified by DNA sequence analysis.
(§2) Baby hamster kidney cells (BHK21 ATCC CCL10) were grown in DMEM medium containing 10% FBS at 37° C. in a […] atmosphere. Cells were seeded in 6 well plates at a density of 10^5 Cells/well and then transiently batch-transfected with either the pFA-PPARγ-LBD or pFA-PPARα-LBD expression plasmids plus a reporter plasmid and an expression plasmid encoding the secretable form of alkaline phosphatase (SEAP) as a normalization control. […] Six hours following transfection, the cells were harvested by trypsinization and seeded in 96 well plates at a density of 10^4 cells/well. After 24 hours to allow attachment of cells, the medium was removed and replaced with 100 ul of phenol red-free medium containing the test substances or control ligands (final DMSO concentration: 0.1%). Following incubation of the cells for 24 hours with substances, 50 ul of the supernatant was recovered and analyzed for SEAP activity (Roche Molecular Biochemicals). The remainder of the supernatant was discarded, 50 ul PBS was added per well followed by one volume of Luciferase Constant-Light Reagent (Roche Molecular Biochemicals) to lyse the cells and initiate the luciferase reaction. Luminescence for both SEAP and luciferase was measured in a Packard TopCount. Luciferase activity was normalized to the SEAP control and transcriptional activation in the presence of a test substance was expressed as fold-activation over cells incubated in the absence of the substance. EC50 values were calculated using the XLfit program (ID Business Solutions Ltd. UK).

human PPARα [2] = target: T2, human PPARα (Homo sapiens, UniProt Q07869); assay: Radioligand binding assay, GST-PPARα-LBD
T2 construct: PPARγ (aa 174 to 476) and PPARα (aa 167 to 469); made in house; host or cells: E. coli BL21(pLysS)
T2 sequence (Q07869 167-468 limits assumed): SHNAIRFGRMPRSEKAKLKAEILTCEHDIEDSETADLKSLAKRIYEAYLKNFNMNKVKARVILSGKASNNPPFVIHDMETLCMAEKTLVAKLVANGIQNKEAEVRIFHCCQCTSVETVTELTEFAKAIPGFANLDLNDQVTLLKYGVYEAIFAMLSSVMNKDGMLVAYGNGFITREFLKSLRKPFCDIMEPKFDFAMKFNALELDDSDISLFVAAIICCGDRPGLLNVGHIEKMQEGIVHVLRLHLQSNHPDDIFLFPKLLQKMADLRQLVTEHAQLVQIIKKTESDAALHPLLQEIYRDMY
Description: as §1
(§3) Induction, expression, and purification of GST-LBD fusion proteins were performed in E. coli strain BL21(pLysS) cells by standard methods (Ref: Current Protocols in Molecular Biology, Wiley Press, edited by Ausubel et al.).
PPARα receptor binding was assayed in TKE10 (10 mM Tris-HCl, pH 8, 50 mM KCl, 2 mM EDTA, 0.1 mg/ml fatty acid free BSA and 10 mM DTT). For each 96 well 2.4 ug equivalent of GST-PPARα-LBD fusion protein and radioligand, e.g. 40000 dpm 2(S)-(2-benzoyl-phenylamino)-3-{4-[1,1-ditritio-2-(5-methyl-2-phenyl-oxazol-4-yl)-ethoxy]-phenyl}-propionic acid, were incubated in 100 ul volume at RT for 2 hrs. Bound ligand was removed from unbound ligand by solid phase separation using MultiScreen plates (Millipore) filled with 80 ul of SG25 according to the manufacturer's recommendations.
(§4) PPARγ receptor binding was assayed in TKE50 (50 mM Tris-HCl, pH 8, 50 mM KCl, 2 mM EDTA, 0.1 mg/ml fatty acid-free BSA and 10 mM DTT). For each 96 well reaction an 140 ng equivalent of GST-PPARγ-LBD fusion protein was bound to 10 ug SPA beads (PharmaciaAmersham) in a final volume of 50 ul by shaking. The resulting slurry was incubated for 1 h at RT and centrifuged for 2 min at 1300 g. The supernatant containing unbound protein was removed and the semidry pellet containig the recptor-coated beads was resolved in 50 ul of TKE. For radioligand binding e.g. 10000 dpm 2(S)-(2-benzoyl-phenylamino)-3-{4-[1,1-ditritio-2-(5-methyl-2-phenyl-oxazol-4-yl)-ethoxy]-phenyl}-propionic acid in 50 ul were added, the reaction incubated at RT for 1 h and scintillation proximity counting performed. All binding assays were performed in 96 well plates and the amount of bound ligand measured on a Packard TopCount using OptiPlates (Packard). Nonspecific binding was determined in the presence of 10^−4 M unlabelled compound. Dose response curves were done in triplicates within a range of concentration from 10^−10 M to 10^−4 M.

human PPARα [3] = target: T2, human PPARα; assay: Luciferase transcriptional reporter gene assay, pFA-PPARα-LBD in BHK21 cells; type: cell-based
Procedure: as §1, §2

mouse PPARγ [4] = target: T1, mouse PPARγ; assay: Radioligand binding assay (SPA), GST-PPARγ-LBD; parameters: PPARγ (aa 174 to 476)
Description: as §1, §3, §4

[5] = GST-PPARα-LBD, tritiated radioligand, RT 2 hrs, read-out: PPARα IC50
[6] = BHK21 cells transfected with pFA-PPARα-LBD, 24 hours incubation, read-out: PPARα EC50
[7] = BHK21 cells transfected with pFA-PPARγ-LBD, 24 hours incubation, read-out: PPARγ EC50
[8] = GST-PPARγ-LBD on SPA beads, tritiated radioligand, RT 1 h, read-out: PPARγ IC50

## CCO[C@@H](Cc1ccc(OCc2nc(-c3ccc(F)c(C)c3)oc2C)cc1C)C(=O)O [Example 5, (S)-2-Ethoxy-3-{4-[2-(4-fluoro-3-methyl-phenyl)-5-methyl-oxazol-4-ylmethoxy]-2-methyl-phenyl}-propionic acid]
Mouse PPARγ [1]
  EC50: 124 nM
Human PPARα [2]; [5]
  IC50: 155 nM
Human PPARα [3]; [6]
  EC50: 38 nM
Mouse PPARγ [4]
  IC50: 146 nM

## CCO[C@@H](Cc1c(C)cc(OCc2nc(-c3ccccc3)oc2C)cc1C)C(=O)O [Example 29, (S)-3-[2,6-Dimethyl-4-(5-methyl-2-phenyl-oxazol-4-ylmethoxy)-phenyl]-2-ethoxy-propionic acid]
Mouse PPARγ [1]
  EC50: 678 nM
Human PPARα [2]; [5]
  IC50: 2380 nM
Human PPARα [3]; [6]
  EC50: 213 nM
Mouse PPARγ [4]
  IC50: 1730 nM

## CCO[C@@H](Cc1ccc(OCc2nc(-c3ccc(OC(C)C)cc3)oc2C)cc1C)C(=O)O [Example 2, (S)-2-Ethoxy-3-{4-[2-(4-isopropoxy-phenyl)-5-methyl-oxazol-4-ylmethoxy]-2-methyl-phenyl}-propionic acid]
Mouse PPARγ [1]
  EC50: 115 nM
Human PPARα [2]; [5]
  IC50: 30 nM
Human PPARα [3]; [6]
  EC50: 163 nM
Mouse PPARγ [4]
  IC50: 58 nM

## CCO[C@@H](Cc1ccc(OCCCc2nc(-c3ccccc3)oc2C)cc1C)C(=O)O [Example 43, (S)-2-Ethoxy-3-{2-methyl-4-[3-(5-methyl-2-phenyl-oxazol-4-yl)-propoxy]-phenyl}-propionic acid]
Mouse PPARγ [1]; [7]
  EC50: 57 nM
Human PPARα [2]
  IC50: 131 nM
Human PPARα [3]
  EC50: 150 nM
Mouse PPARγ [4]; [8]
  IC50: 33 nM

## CCO[C@@H](Cc1ccc(OCc2nc(-c3ccc(F)c(C)c3)oc2C)cc1CC)C(=O)O [Example 9, (S)-2-Ethoxy-3-{2-ethyl-4-[2-(4-fluoro-3-methyl-phenyl)-5-methyl-oxazol-4-ylmethoxy]-phenyl}-propionic acid]
Mouse PPARγ [1]
  EC50: 33 nM
Human PPARα [2]; [5]
  IC50: 196 nM
Human PPARα [3]; [6]
  EC50: 21 nM
Mouse PPARγ [4]
  IC50: 129 nM

## CN(CCOc1ccc(CC2SC(=O)NC2=O)cc1)c1ccccn1 (centres unmarked) [Rosiglitazone, reference compound]
Human PPARα [2]; GST-PPARα-LBD, tritiated radioligand, RT 2 hrs
  PPARα IC50: inactive
Human PPARα [3]; BHK21 cells transfected with pFA-PPARα-LBD, 24 hours incubation
  PPARα EC50: inactive

## CCO[C@@H](Cc1ccc(OCc2nc(-c3ccc(C(C)C)cc3)oc2C)cc1OC)C(=O)O [Example 25, (S)-2-Ethoxy-3-{4-[2-(4-isopropyl-phenyl)-5-methyl-oxazol-4-ylmethoxy]-2-methoxy-phenyl}-propionic acid]
Mouse PPARγ [1]
  EC50: 75 nM
Human PPARα [2]; [5]
  IC50: 177 nM
Human PPARα [3]; [6]
  EC50: 26 nM
Mouse PPARγ [4]
  IC50: 129 nM

## CCO[C@@H](Cc1ccc(OCc2nc(-c3ccc(OC(C)C)cc3)oc2C)cc1Cl)C(=O)O [Example 17, (S)-3-{2-Chloro-4-[2-(4-isopropoxy-phenyl)-5-methyl-oxazol-4-ylmethoxy]-phenyl}-2-ethoxy-propionic acid]
Mouse PPARγ [1]
  EC50: 174 nM
Human PPARα [2]; [5]
  IC50: 73 nM
Human PPARα [3]; [6]
  EC50: 186 nM
Mouse PPARγ [4]
  IC50: 31 nM

## CCO[C@@H](Cc1ccc(OCc2nc(-c3ccccc3)oc2C)cc1C)C(=O)O [Example 3, (S)-2-Ethoxy-3-[2-methyl-4-(5-methyl-2-phenyl-oxazol-4-ylmethoxy)-phenyl]-propionic acid]
Mouse PPARγ [1]
  EC50: 87 nM
Human PPARα [2]; [5]
  IC50: 87 nM
Human PPARα [3]; [6]
  EC50: 57 nM
Mouse PPARγ [4]
  IC50: 506 nM

## CO[C@@H](Cc1ccc(OCCc2nc(-c3ccccc3)oc2C)cc1O)C(=O)O [Example 23, (S)-3-{2-Hydroxy-4-[2-(5-methyl-2-phenyl-oxazol-4-yl)-ethoxy]-phenyl}-2-methoxy-propionic acid]
Mouse PPARγ [1]; [7]
  EC50: 138 nM
Human PPARα [2]
  IC50: 52 nM
Human PPARα [3]
  EC50: 306 nM
Mouse PPARγ [4]; [8]
  IC50: 48 nM
